Experimental data from patent US20060128792A1, “Deguelin as a chemopreventive agent for lung cancer” (priority 2002, published 2006).
“And” between values parts separate entries of the source, which are not always exact repeats. Equal entries are not always repeated.

Legend:
Format in all cases: cell-based
H460 = experiment: MTT assay, growth inhibition by deguelin or deguelin derivatives; details: 3 days
A549 = experiment: as above; details: 3 days
H322 = experiment: as above; details: 3 days
H358 = experiment: as above; details: 3 days
H1299 = experiment: as above; details: 3 days
H596 = experiment: as above; details: 3 days
NSCLC cells = experiment: MTT assay, growth inhibition of NSCLC cells by deguelin and deguelin derivatives (Table 2, FIG. 7); details: 0.01-1 μM, 3 days

## COc1cc2c(cc1OC)-c1c(oc3c4c(ccc3c1=O)OC(C)(C)C=C4)CO2 [7a,13a-dehydrodeguelin]
H460; H460, 0.01 μM
  % control: 0.86%
  MTT assay reading, Average: 1.4779
  MTT assay reading, individual replicate: 1.531 and 1.338 and 1.635 and 1.354 and 1.477 and 1.476 and 1.534
H460; H460, 0.1 μM
  % control: 0.88%
  MTT assay reading, Average: 1.5079
  MTT assay reading, individual replicate: 1.473 and 1.427 and 1.518 and 1.504 and 1.524 and 1.575 and 1.534
H460; H460, 0.5 μM
  % control: 0.78%
  MTT assay reading, Average: 1.3309
  MTT assay reading, individual replicate: 1.297 and 1.323 and 1.388 and 1.304 and 1.362 and 1.335 and 1.307
H460; H460, 1 μM
  % control: 0.64%
  MTT assay reading, Average: 1.1053
  MTT assay reading, individual replicate: 1.191 and 1.216 and 1.047 and 1.094 and 0.946 and 1.108 and 1.135
A549; A549, 0.01 μM
  MTT assay reading, Average: 1.2597
  MTT assay reading, individual replicate: 1.182 and 1.147 and 1.307 and 1.208 and 1.279 and 1.361 and 1.334
A549; A549, 0.1 μM
  MTT assay reading, Average: 1.1816
  MTT assay reading, individual replicate: 1.073 and 1.17 and 1.208 and 1.308 and 1.211 and 1.152 and 1.149
A549; A549, 0.5 μM
  MTT assay reading, Average: 1.0421
  MTT assay reading, individual replicate: 1.107 and 1.032 and 0.931 and 0.964 and 1.036 and 1.104 and 1.121
A549; A549, 1 μM
  MTT assay reading, Average: 0.9223
  MTT assay reading, individual replicate: 0.97 and 0.971 and 1.014 and 0.89 and 0.862 and 0.886 and 0.863
H322; H322, 0.01 μM
  MTT assay reading, Average: 1.0041
  MTT assay reading, individual replicate: 0.921 and 1.08 and 1.05 and 1.022 and 0.888 and 0.926 and 1.142
H322; H322, 0.1 μM
  MTT assay reading, Average: 1.0019
  MTT assay reading, individual replicate: 1.04 and 1.033 and 0.923 and 1.031 and 1.09 and 0.883 and 1.013
H322; H322, 0.5 μM
  MTT assay reading, Average: 0.866
  MTT assay reading, individual replicate: 0.837 and 0.8 and 0.975 and 0.926 and 0.806 and 0.811 and 0.907
H322; H322, 1 μM
  MTT assay reading, Average: 0.8379
  MTT assay reading, individual replicate: 0.841 and 0.799 and 0.822 and 0.932 and 0.793 and 0.709 and 0.969
H358; H358, 0.01 μM
  MTT assay reading, Average: 0.7673
  MTT assay reading, individual replicate: 0.79 and 0.678 and 0.647 and 0.812 and 0.791 and 0.864 and 0.789
H358; H358, 0.1 μM
  MTT assay reading, Average: 0.769
  MTT assay reading, individual replicate: 0.726 and 0.676 and 0.824 and 0.846 and 0.782 and 0.658 and 0.871
H358; H358, 0.5 μM
  MTT assay reading, Average: 0.719
  MTT assay reading, individual replicate: 0.684 and 0.6 and 0.66 and 0.739 and 0.819 and 0.753 and 0.778
H358; H358, 1 μM
  MTT assay reading, Average: 0.6534
  MTT assay reading, individual replicate: 0.691 and 0.548 and 0.643 and 0.706 and 0.647 and 0.656 and 0.683
H1299; H1299, 0.01 μM
  % control: 0.93%
  MTT assay reading, Average: 1.3179
  MTT assay reading, individual replicate: 1.311 and 1.344 and 1.402 and 1.302 and 1.286 and 1.293 and 1.287
H1299; H1299, 0.1 μM
  % control: 0.87%
  MTT assay reading, Average: 1.2374
  MTT assay reading, individual replicate: 1.228 and 1.331 and 1.318 and 1.141 and 1.196 and 1.153 and 1.295
H1299; H1299, 0.5 μM
  % control: 0.69%
  MTT assay reading, Average: 0.9707
  MTT assay reading, individual replicate: 1.033 and 1.017 and 1.106 and 0.913 and 0.874 and 0.947 and 0.905
H1299; H1299, 1 μM
  % control: 0.60%
  MTT assay reading, Average: 0.8452
  MTT assay reading, individual replicate: 0.769 and 0.838 and 0.938 and 0.813 and 0.837 and 0.876
H596; H596, 0.01 μM
  MTT assay reading, Average: 1.4338
  MTT assay reading, individual replicate: 1.408 and 1.317 and 1.526 and 1.458 and 1.495 and 1.399
H596; H596, 0.1 μM
  MTT assay reading, Average: 1.2779
  MTT assay reading, individual replicate: 1.356 and 1.281 and 1.153 and 1.273 and 1.246 and 1.358 and 1.278
H596; H596, 0.5 μM
  MTT assay reading, Average: 1.2116
  MTT assay reading, individual replicate: 1.19 and 1.194 and 1.071 and 1.133 and 1.285 and 1.365 and 1.243
H596; H596, 1 μM
  MTT assay reading, Average: 1.0616
  MTT assay reading, individual replicate: 1.202 and 1.183 and 1.019 and 1.159 and 1.07 and 0.899 (2×)

## C=C(C)[C@H]1Cc2c(ccc3c2O[C@@H]2COc4cc(OC)c(OC)cc4[C@@H]2C3=O)O1 [rotenone]
H460; H460, 0.01 μM
  % control: 0.14%
  MTT assay reading, Average: 0.2486
  MTT assay reading, individual replicate: 0.092 and 0.412 and 0.24 and 0.191 and 0.228 and 0.242 and 0.335
H460; H460, 0.1 μM
  % control: 0.10%
  MTT assay reading, Average: 0.1766
  MTT assay reading, individual replicate: 0.143 and 0.107 and 0.138 and 0.161 and 0.242 and 0.268 and 0.177
H460; H460, 0.5 μM
  % control: 0.09%
  MTT assay reading, Average: 0.1499
  MTT assay reading, individual replicate: 0.185 and 0.159 and 0.143 and 0.1 and 0.104 and 0.117 and 0.241
H460; H460, 1 μM
  % control: 0.10%
  MTT assay reading, Average: 0.1763
  MTT assay reading, individual replicate: 0.071 and 0.467 and 0.127 and 0.144 and 0.138 and 0.118 and 0.169
A549; A549, 0.01 μM
  % control: 0.35%
  MTT assay reading, Average: 0.463
  MTT assay reading, individual replicate: 0.425 and 0.439 and 0.541 and 0.451 and 0.45 and 0.428 and 0.507
A549; A549, 0.1 μM
  % control: 0.27%
  MTT assay reading, Average: 0.3653
  MTT assay reading, individual replicate: 0.418 and 0.293 and 0.364 and 0.26 and 0.429 and 0.354 and 0.439
A549; A549, 0.5 μM
  % control: 0.27%
  MTT assay reading, Average: 0.3657
  MTT assay reading, individual replicate: 0.284 and 0.833 and 0.266 and 0.314 and 0.246 and 0.308 and 0.309
A549; A549, 1 μM
  % control: 0.13%
  MTT assay reading, Average: 0.1791
  MTT assay reading, individual replicate: 0.188 and 0.171 and 0.176 and 0.213 and 0.173 and 0.141 and 0.192
H322; H322, 0.01 μM
  MTT assay reading, Average: 0.4327
  MTT assay reading, individual replicate: 0.477 and 0.569 and 0.498 and 0.266 and 0.304 and 0.489 and 0.426
H322; H322, 0.1 μM
  MTT assay reading, Average: 0.3726
  MTT assay reading, individual replicate: 0.414 and 0.357 and 0.41 and 0.408 and 0.319 and 0.361 and 0.339
H322; H322, 0.5 μM
  MTT assay reading, Average: 0.322
  MTT assay reading, individual replicate: 0.262 and 0.328 and 0.307 and 0.34 and 0.378 and 0.353 and 0.286
H322; H322, 1 μM
  MTT assay reading, Average: 0.2547
  MTT assay reading, individual replicate: 0.229 and 0.223 and 0.225 and 0.288 and 0.226 and 0.338 and 0.254
H358; H358, 0.01 μM
  MTT assay reading, Average: 0.3171
  MTT assay reading, individual replicate: 0.298 and 0.253 and 0.268 and 0.348 and 0.331 and 0.329 and 0.393
H358; H358, 0.1 μM
  MTT assay reading, Average: 0.309
  MTT assay reading, individual replicate: 0.257 and 0.27 and 0.281 and 0.311 and 0.338 and 0.371 and 0.335
H358; H358, 0.5 μM
  MTT assay reading, Average: 0.2334
  MTT assay reading, individual replicate: 0.263 and 0.209 and 0.189 and 0.244 and 0.198 and 0.235 and 0.296
H358; H358, 1 μM
  MTT assay reading, Average: 0.2736
  MTT assay reading, individual replicate: 0.308 and 0.205 and 0.243 and 0.287 and 0.258 and 0.247 and 0.367
H1299; H1299, 0.01 μM
  MTT assay reading, Average: 0.2794
  MTT assay reading, individual replicate: 0.249 and 0.392 and 0.221 and 0.209 and 0.261 and 0.311 and 0.313
H1299; H1299, 0.1 μM
  MTT assay reading, Average: 0.1907
  MTT assay reading, individual replicate: 0.25 and 0.3 and 0.158 and 0.09 and 0.125 and 0.235 and 0.177
H1299; H1299, 0.5 μM
  MTT assay reading, Average: 0.2391
  MTT assay reading, individual replicate: 0.308 and 0.259 and 0.248 and 0.197 and 0.195 and 0.179 and 0.288
H1299; H1299, 1 μM
  MTT assay reading, Average: 0.2753
  MTT assay reading, individual replicate: 0.226 and 0.193 and 0.23 and 0.175 and 0.76 and 0.148 and 0.195
H596; H596, 0.01 μM
  MTT assay reading, Average: 0.4666
  MTT assay reading, individual replicate: 0.393 and 0.433 and 0.462 and 0.499 and 0.497 (2×) and 0.485
H596; H596, 0.1 μM
  MTT assay reading, Average: 0.3784
  MTT assay reading, individual replicate: 0.271 and 0.369 and 0.513 and 0.582 and 0.413 and 0.285 and 0.216
H596; H596, 0.5 μM
  MTT assay reading, Average: 0.2329
  MTT assay reading, individual replicate: 0.189 and 0.362 and 0.261 and 0.296 and 0.156 and 0.203 and 0.163
H596; H596, 1 μM
  MTT assay reading, Average: 0.177
  MTT assay reading, individual replicate: 0.205 (2×) and 0.123 and 0.193 and 0.172 and 0.161 and 0.18

## bromorot-2′-enoic acid
NSCLC cells
  inhibiting cell growth in NSCLC cells, ranking among the derivatives: most effective
